{"source": "patent US6313092A", "about": "“Method for increasing the electrotransport flux of polypeptides” (ALZA Corporation, priority 1998, dated 2001)", "key": {"PTH receptor": {"biological_target": "T1, PTH receptor (Rattus norvegicus, UniProt P25961)", "T1 sequence (P25961 27-591)": "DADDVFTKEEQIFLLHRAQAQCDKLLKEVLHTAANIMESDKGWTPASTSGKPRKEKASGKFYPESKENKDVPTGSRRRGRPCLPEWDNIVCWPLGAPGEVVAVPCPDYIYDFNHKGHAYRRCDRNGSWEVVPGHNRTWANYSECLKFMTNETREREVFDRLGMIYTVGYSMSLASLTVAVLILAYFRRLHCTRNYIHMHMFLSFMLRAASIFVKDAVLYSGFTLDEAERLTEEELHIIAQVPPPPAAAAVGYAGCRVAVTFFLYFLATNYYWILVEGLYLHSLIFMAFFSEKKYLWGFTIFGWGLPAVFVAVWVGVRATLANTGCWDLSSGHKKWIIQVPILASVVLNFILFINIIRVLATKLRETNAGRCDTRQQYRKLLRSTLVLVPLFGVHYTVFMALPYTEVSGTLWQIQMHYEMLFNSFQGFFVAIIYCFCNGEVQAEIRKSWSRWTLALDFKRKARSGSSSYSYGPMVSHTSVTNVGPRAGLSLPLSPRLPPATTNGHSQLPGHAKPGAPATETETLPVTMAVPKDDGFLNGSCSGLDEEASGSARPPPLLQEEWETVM", "test": "PTH analog activity assay: stimulation of adenylate cyclase (cAMP by SPA) in UMR106 cells", "quoted_text": "PTH concentrations were determined by OD280 using an extinction coefficient of 6600 for the recombinant peptide and 5500 for the synthetic peptide. The rat osteosarcoma cell line UMR106 (ATCC CRL 1661) was used for in vitro testing of the peptide's ability to activate the PTH receptor. Activation of the PTH receptor leads to an intracellular rise in cAMP concentration.\nThe UMR106 cells were seeded at about 2.5×10^5 per well in a 48 well dish and allowed to grow to confluence. Assays were performed on cells 3-5 days postconfluence. The media (Dulbecco's modified Eagle's medium, DMEM, with fetal calf serum) was removed, and 1 mL of fresh media was applied. PTH (recombinant or synthetic) at various concentrations and 3-isobutyl-l-methyl xanthine (IBMX) at 1 mM final concentration were then added to each well of the plate, which was then incubated for 5 minutes at room temperature. The media was then removed and the cells quickly washed with ice cold PBS. The cells were then extracted twice with 1 mL of absolute ethanol. The two extractions were combined and the ethanol removed by evaporation. The extract was then redissolved in 1 mL of scintillation proximity buffer (SPA buffer) (Amersham, Arlington Heights, Ill.). The cAMP concentration was determined by assay using a scintillation proximity assay (SPA) kit available from Amersham."}, "[1]": {"test": "In vitro electrotransport flux of the PTH analogs", "type": "in vitro ADME, human", "conditions": "retro-inverso versions, 1 mM donor pH 5.0, 100 μA cm^-2, 32° C.", "experimental": "In vitro electrotransport studies were carried out in multi-compartment, custom-built, small volume cells using anodic drive. 1 mM PTH in 10 mM buffer was placed in the donor compartment and 25 mM final ionic strength receptor was placed in the receptor compartment. The receptor solution was 15 mM NaCl buffered to pH 7 with 10 mM imidazole, 0.1% bovine serum albumin (BSA) as a blocking agent, Tween 20 detergent and sodium azide as a bactericide.\nHeat-stripped human cadaver stratum corneum was placed between the donor and receptor compartments with the epidermis side toward the receptor compartment. A constant DC current of […] (ie,0.1 mA/cm^2) was applied. Cells were maintained at 32° C. during the in vitro studies with receptor samples taken every 2 hours (receptor volume removed and replaced with \"fresh\" receptor at each sampling). Receptor samples were analyzed by reversed-phase HPLC.\nPeak areas of PTH receptor samples were compared to standard curves of the same analog of known concentrations run at the same time using an analytical polymeric column, at a flow rate of 1.5 mL/min with a gradient from 10-50% B in ten minutes for elution. Buffer A was 0.1% trifluroacetic acid (TFA), 1% acetonitrile; Buffer B was 0.1% TFA, 98.9% acetonitrile. Analog concentrations were converted to mass flux and plotted vs. time.\nFor the in vitro electrotransport studies, described donors contained the retro-inverso versions (ie, D-amino acid residues were used and were assembled in reverse order than usual) of the PTH analogs (1 mM) in aqueous solutions at pH 5.0. This was because PTH analogs 1 and 2 were not stable when incubated with stripped stratum corneum, probably due to proteolytic digestion by skin proteases. The fully assembled electrotransport cells were incubated at 32±0.5° C. The skin contact area available for transport was 1.27 cm^2. The donor compartment volume was 200 μL; the receptor compartment volume was 350 μL. The receptor solution was separated from the cathode by an anion exchange membrane (Ionac™, Eletrosynthesis Co., Lancaster, N.Y.). Each cell was connected to a constant current source at a standard current density of 100 μA cm^-2. The voltage drop across each cell was monitored at approximately 2-hour intervals for the duration of the experiment."}, "[2]": {"test": "Stability on incubation with stripped stratum corneum", "type": "in vitro ADME, human"}}, "note": "Where a SMILES comes first, the peptide text is derived from it. The star is where a group is joined. hSer(lactone) = O=C1OCC[C@@H]1N*", "data": [{"smiles": "CC[C@H](C)[C@H](NC(=O)[C@H](CCC(=O)O)NC(=O)[C@H](CO)NC(=O)[C@@H](NC(=O)[C@@H](N)CO)C(C)C)C(=O)N[C@@H](CCC(N)=O)C(=O)N[C@@H](CC(C)C)C(=O)N[C@@H](CC(C)C)C(=O)N[C@@H](Cc1c[nH]cn1)C(=O)N[C@@H](CC(N)=O)C(=O)N[C@@H](CC(C)C)C(=O)NCC(=O)N[C@@H](CCCCN)C(=O)N[C@@H](Cc1c[nH]cn1)C(=O)N[C@@H](CCCNC(=N)N)C(=O)N[C@@H](CC(N)=O)C(=O)N[C@@H](CO)C(=O)N[C@@H](CC(C)C)C(=O)N[C@@H](CCCNC(=N)N)C(=O)N[C@@H](CCCNC(=N)N)C(=O)N[C@H](C(=O)N[C@@H](CCCNC(=N)N)C(=O)N[C@@H](Cc1c[nH]c2ccccc12)C(=O)N[C@@H](CC(C)C)C(=O)N[C@@H](CCCNC(=N)N)C(=O)N[C@@H](CCCCN)C(=O)N[C@@H](CCCCN)C(=O)N[C@@H](CC(C)C)C(=O)N[C@@H](CCCCN)C(=O)N[C@@H](CC(=O)O)C(=O)N[C@H](C(=O)N[C@@H](Cc1c[nH]cn1)C(=O)N[C@@H](CC(N)=O)C(=O)N[C@@H](Cc1ccc(O)cc1)C(=O)N[C@H]1CCOC1=O)C(C)C)C(C)C", "note": "[PTH analog 1] (H-SVSEIQLLHNLGKHRNSLRRVRWLRKKLKDVHNY-{hSer(lactone)})", "values": [{"measurement": "EC50", "setting": "PTH receptor", "value": 0.9, "unit": "nM"}, {"measurement": "Average mass flux", "setting": "[1]", "value": 1.4, "unit": "μg cm^-2 h^-1"}, {"measurement": "median mass flux", "setting": "[1]", "value": 0.3, "unit": "μg cm^-2 h^-1"}, {"measurement": "stability when incubated with stripped stratum corneum", "setting": "[2]", "value": "not stable"}]}, {"smiles": "CC[C@H](C)[C@H](NC(=O)[C@H](CCC(=O)O)NC(=O)[C@H](CO)NC(=O)[C@@H](NC(=O)[C@@H](N)CO)C(C)C)C(=O)N[C@@H](CCC(N)=O)C(=O)N[C@@H](CC(C)C)C(=O)N[C@@H](CC(C)C)C(=O)N[C@@H](Cc1c[nH]cn1)C(=O)N[C@@H](CC(N)=O)C(=O)N[C@@H](CO)C(=O)NCC(=O)N[C@@H](CCCCN)C(=O)N[C@@H](Cc1c[nH]cn1)C(=O)N[C@@H](CCCNC(=N)N)C(=O)N[C@@H](CC(N)=O)C(=O)N[C@@H](CO)C(=O)N[C@@H](CO)C(=O)N[C@@H](CCCNC(=N)N)C(=O)N[C@@H](CCCNC(=N)N)C(=O)N[C@@H](CO)C(=O)N[C@@H](CCCNC(=N)N)C(=O)N[C@@H](Cc1c[nH]c2ccccc12)C(=O)N[C@@H](CO)C(=O)N[C@@H](CCCNC(=N)N)C(=O)N[C@@H](CCCCN)C(=O)N[C@@H](CCCCN)C(=O)N[C@@H](CO)C(=O)N[C@@H](CCCCN)C(=O)N[C@@H](CC(=O)O)C(=O)N[C@H](C(=O)N[C@@H](Cc1c[nH]cn1)C(=O)N[C@@H](CC(N)=O)C(=O)N[C@@H](CO)C(=O)N[C@H]1CCOC1=O)C(C)C", "note": "[PTH analog 2] (H-SVSEIQLLHNSGKHRNSSRRSRWSRKKSKDVHNS-{hSer(lactone)})", "values": [{"measurement": "Average mass flux", "setting": "[1]", "value": 4.1, "unit": "μg cm^-2 h^-1"}, {"measurement": "median mass flux", "setting": "[1]", "value": 3.2, "unit": "μg cm^-2 h^-1"}, {"measurement": "stability when incubated with stripped stratum corneum", "setting": "[2]", "value": "not stable"}]}]}
